From US20130157954A1, “METHODS FOR TREATMENT OR PROPHYLAXIS OF KIDNEY OR LIVER DYSFUNCTION” (NPS PHARMACEUTICALS, INC., priority 2010, published 2013)

Assay: Example 2: liver biomarkers (albumin, gamma glutamyl transferase, total bilirubin, ALT, AST, ALP) in short bowel syndrome patients, every four weeks for 24 weeks; also sorted by >10% change from baseline
Assay type: in vivo, Human
Details: 0.05 mg/kg/d
Method: To further confirm the results of Example 1, a further study was conducted involving more individuals and additional diagnostic biomarkers. Human patients with short bowel syndrome were divided into two groups: a control group (43 total individuals) to receive placebo, and an experimental group (42 total individuals) to receive teduglutide at 0.05 mg/kg/day throughout the study. Patients were treated by subcutaneous injection of placebo or the appropriate dose of teduglutide. Known biomarkers of liver function were monitored every four weeks, for 24 weeks. The liver biomarkers tested included albumin, gamma glutamyl transferase, total bilirubin, ALT and AST and ALP. Before administration of placebo or teduglutide, diagnostic biomarker levels were tested to establish a baseline for each individual.
To determine the effect of GLP-2 on the levels of the diagnostic biomarkers, the average level of each biomarker was measured for the placebo and teduglutide treated groups for each visit. Furthermore, the average change from baseline was calculated using the established baseline values. For FIGS. 17-28, p-values were calculated using the t-test.
P values are provided, which were calculated for each distribution of biomarker changes for each week using the chi-squared test.

In the case of `CC[C@H](C)[C@H](NC(=O)[C@H](Cc1ccccc1)NC(=O)[C@H](CC(=O)O)NC(=O)[C@H](CCCNC(=N)N)NC(=O)[C@H](C)NC(=O)[C@H](C)NC(=O)[C@H](CC(C)C)NC(=O)[C@H](CC(N)=O)NC(=O)[C@H](CC(=O)O)NC(=O)[C@H](CC(C)C)NC(=O)[C@@H](NC(=O)[C@@H](NC(=O)[C@H](CC(N)=O)NC(=O)[C@H](CCSC)NC(=O)[C@H](CCC(=O)O)NC(=O)[C@H](CC(=O)O)NC(=O)[C@H](CO)NC(=O)[C@H](Cc1ccccc1)NC(=O)[C@H](CO)NC(=O)CNC(=O)[C@H](CC(=O)O)NC(=O)CNC(=O)[C@@H](N)Cc1c[nH]cn1)[C@@H](C)O)[C@@H](C)CC)C(=O)N[C@@H](CC(N)=O)C(=O)N[C@@H](Cc1c[nH]c2ccccc12)C(=O)N[C@@H](CC(C)C)C(=O)N[C@H](C(=O)N[C@@H](CCC(N)=O)C(=O)N[C@H](C(=O)N[C@@H](CCCCN)C(=O)N[C@H](C(=O)N[C@H](C(=O)N[C@@H](CC(=O)O)C(=O)O)[C@@H](C)O)[C@@H](C)CC)[C@@H](C)O)[C@@H](C)CC` [teduglutide], the “Bilirubin: subjects Within 10% of Baseline” value (Week 8, m = 40) is reported as 10 (25.0%) n (%), the “Bilirubin: subjects with >10% decrease from Baseline” value (Week 8, m = 40) is reported as 20 (50.0%) n (%) and the “Bilirubin: subjects with >10% increase from Baseline” value (Week 8, m = 40) is reported as 10 (25.0%) n (%). For the same molecule, the “ALKALINE PHOSPHATASE Change from Baseline Median” value (Week 12) was −23 U/L, the “ALT Change from Baseline, Max” value (Week 12) was 35 U/L and the “ALT Change from Baseline, Mean” value (Week 12) was −9.8 U/L. The “ALT Change from Baseline, Median” value (Week 12) was −4 U/L, the “ALT Change from Baseline, Min” value (Week 12) was −62 U/L and the “ALT Observed Value, Max” value (Week 12) was 94 U/L. For the same molecule, the “ALT Observed Value, Min” value (Week 12) was 11 U/L, the “AST Change from Baseline, Max” value (Week 12) was 34 U/L and the “AST Change from Baseline, Mean” value (Week 12) was −4.2 U/L. For the same molecule, the “AST Change from Baseline, Median” value (Week 12) was −5 U/L, the “AST Change from Baseline, Min” value (Week 12) was −39 U/L and the “AST Observed Value, Max” value (Week 12) was 60 U/L. For the same molecule, the “AST Observed Value, Median” value (Week 12) was 25 U/L, the “AST Observed Value, Min” value (Week 12) was 9 U/L and the “Albumin Change from Baseline, Max” value (Week 12) was 5 g/L. The “Albumin Change from Baseline, Mean” value (Week 12) was -0.9 g/L, the “Albumin Change from Baseline, Median” value (Week 12) was -1 g/L and the “Albumin Change from Baseline, Min” value (Week 12) was -7 g/L. For the same molecule, the “Albumin Observed Value, Max” value (Week 12) was 47 g/L, the “Albumin Observed Value, Median” value (Week 12) was 41 g/L and the “Albumin Observed Value, Min” value (Week 12) was 35 g/L. The “Alkaline Phosphatase Change from Baseline, Max” value (Week 12) was 25 U/L, the “Alkaline Phosphatase Change from Baseline, Min” value (Week 12) was −127 U/L and the “Alkaline Phosphatase Observed Value, Max” value (Week 12) was 304 U/L. For the same molecule, the “Alkaline Phosphatase Observed Value, Median” value (Week 12) was 98 U/L, the “Alkaline Phosphatase Observed Value, Min” value (Week 12) was 52 U/L and the “Bilirubin Change from Baseline, Max” value (Week 12) was 5.2 µmol/L. The “Bilirubin Change from Baseline, Median” value (Week 12) was -0.05 µmol/L, the “Bilirubin Change from Baseline, Min” value (Week 12) was -13.2 µmol/L and the “Bilirubin Observed Value, Max” value (Week 12) was 57.8 µmol/L. The “Bilirubin Observed Value, Min” value (Week 12) was 3.2 µmol/L, the “Gamma Glutamyl Transferase Change from Baseline, Max” value (Week 12) was 56 U/L and the “Gamma Glutamyl Transferase Change from Baseline, Mean” value (Week 12) was −8.1 U/L. The “Gamma Glutamyl Transferase Change from Baseline, Median” value (Week 12) was −4 U/L, the “Gamma Glutamyl Transferase Change from Baseline, Min” value (Week 12) was −162 U/L and the “Gamma Glutamyl Transferase Observed Value, Max” value (Week 12) was 240 U/L. The “Gamma Glutamyl Transferase Observed Value, Median” value (Week 12) was 51 U/L, the “Gamma Glutamyl Transferase Observed Value, Min” value (Week 12) was 8 U/L and the “ALT: subjects Within 10% of Baseline” value (Week 12, m = 34) was 10 (29.4%) n (%). For the same molecule, the “ALT: subjects with >10% decrease from Baseline” value (Week 12, m = 34) was 17 (50.0%) n (%), the “ALT: subjects with >10% increase from Baseline” value (Week 12, m = 34) was 7 (20.6%) n (%) and the “AST: subjects Within 10% of Baseline” value (Week 12, m = 34) was 6 (17.6%) n (%). The “AST: subjects with >10% decrease from Baseline” value (Week 12, m = 34) was 21 (61.8%) n (%), the “AST: subjects with >10% increase from Baseline” value (Week 12, m = 34) was 7 (20.6%) n (%) and the “Albumin: subjects Within 10% of Baseline” value (Week 12, m = 34) was 31 (91.2%) n (%). The “Albumin: subjects with >10% decrease from Baseline” value (Week 12, m = 34) was 2 (5.9%) n (%), the “Albumin: subjects with >10% increase from Baseline” value (Week 12, m = 34) was 1 (2.9%) n (%) and the “Alkaline Phosphatase: subjects Within 10% of Baseline” value (Week 12, m = 34) was 6 (17.6%) n (%). For the same molecule, the “Alkaline Phosphatase: subjects with >10% decrease from Baseline” value (Week 12, m = 34) was 23 (67.6%) n (%), the “Alkaline Phosphatase: subjects with >10% increase from Baseline” value (Week 12, m = 34) was 5 (14.7%) n (%) and the “Bilirubin: subjects Within 10% of Baseline” value (Week 12, m = 34) was 10 (29.4%) n (%). For the same molecule, the “Bilirubin: subjects with >10% decrease from Baseline” value (Week 12, m = 34) was 15 (44.1%) n (%), the “Bilirubin: subjects with >10% increase from Baseline” value (Week 12, m = 34) was 9 (26.5%) n (%) and the “ALT Change from Baseline, Max” value (Week 16) was 45 U/L. For the same molecule, the “ALT Change from Baseline, Mean” value (Week 16) was −8.0 U/L, the “ALT Change from Baseline, Median” value (Week 16) was −3 U/L and the “ALT Change from Baseline, Min” value (Week 16) was −64 U/L. The “ALT Observed Value, Max” value (Week 16) was 140 U/L, the “ALT Observed Value, Min” value (Week 16) was 13 U/L and the “AST Change from Baseline, Max” value (Week 16) was 20 U/L. For the same molecule, the “AST Change from Baseline, Mean” value (Week 16) was −3.3 U/L, the “AST Change from Baseline, Median” value (Week 16) was −3 U/L and the “AST Change from Baseline, Min” value (Week 16) was −42 U/L. For the same molecule, the “AST Observed Value, Max” value (Week 16) was 65 U/L, the “AST Observed Value, Median” value (Week 16) was 26 U/L and the “AST Observed Value, Min” value (Week 16) was 9 U/L. For the same molecule, the “Albumin Change from Baseline, Max” value (Week 16) was 3 g/L, the “Albumin Change from Baseline, Mean” value (Week 16) was -0.7 g/L and the “Albumin Change from Baseline, Median” value (Week 16) was -0.5 g/L. The “Albumin Change from Baseline, Min” value (Week 16) was -5 g/L, the “Albumin Observed Value, Max” value (Week 16) was 49 g/L and the “Albumin Observed Value, Median” value (Week 16) was 42 g/L. For the same molecule, the “Albumin Observed Value, Min” value (Week 16) was 32 g/L, the “Alkaline Phosphatase Change from Baseline, Max” value (Week 16) was 71 U/L and the “Alkaline Phosphatase Change from Baseline, Min” value (Week 16) was −104 U/L. For the same molecule, the “Alkaline Phosphatase Observed Value, Max” value (Week 16) was 311 U/L, the “Alkaline Phosphatase Observed Value, Min” value (Week 16) was 46 U/L and the “Bilirubin Change from Baseline, Max” value (Week 16) was 5.2 µmol/L. The “Bilirubin Change from Baseline, Min” value (Week 16) was -37.7 µmol/L, the “Bilirubin Observed Value, Max” value (Week 16) was 27.4 µmol/L and the “Bilirubin Observed Value, Mean” value (Week 16) was 9.40 µmol/L. The “Bilirubin Observed Value, Median” value (Week 16) was 8.1 µmol/L, the “Bilirubin Observed Value, Min” value (Week 16) was 3.4 µmol/L and the “Gamma Glutamyl Transferase Change from Baseline, Max” value (Week 16) was 90 U/L. For the same molecule, the “Gamma Glutamyl Transferase Change from Baseline, Mean” value (Week 16) was −7.0 U/L, the “Gamma Glutamyl Transferase Change from Baseline, Median” value (Week 16) was −5.5 U/L and the “Gamma Glutamyl Transferase Change from Baseline, Min” value (Week 16) was −161 U/L. The “Gamma Glutamyl Transferase Observed Value, Max” value (Week 16) was 294 U/L, the “Gamma Glutamyl Transferase Observed Value, Median” value (Week 16) was 54 U/L and the “Gamma Glutamyl Transferase Observed Value, Min” value (Week 16) was 6 U/L. For the same molecule, the “ALT: subjects Within 10% of Baseline” value (Week 16, m = 38) was 10 (26.3%) n (%), the “ALT: subjects with >10% decrease from Baseline” value (Week 16, m = 38) was 20 (52.6%) n (%) and the “ALT: subjects with >10% increase from Baseline” value (Week 16, m = 38) was 8 (21.1%) n (%). For the same molecule, the “AST: subjects Within 10% of Baseline” value (Week 16, m = 38) was 12 (31.6%) n (%), the “AST: subjects with >10% decrease from Baseline” value (Week 16, m = 38) was 19 (50.0%) n (%) and the “AST: subjects with >10% increase from Baseline” value (Week 16, m = 38) was 7 (18.4%) n (%). The “Albumin: subjects Within 10% of Baseline” value (Week 16, m = 38) was 36 (94.7%) n (%), the “Albumin: subjects with >10% decrease from Baseline” value (Week 16, m = 38) was 2 (5.3%) n (%) and the “Albumin: subjects with >10% increase from Baseline” value (Week 16, m = 38) was 0 n (%).
